This is an account of results in patent publication US20120100204A1, “TGF-Beta Stimulating Agent Compositions and Combinations” (TCP INNOVATIONS LTD, priority 2007, published 2012).

The subject of one assay is tgfb1 mRNA. The assay is described as follows: tgfb1 mRNA level by quantitative PCR in human aortic vascular smooth muscle cells. In kind it is cell-based. The settings on record: 24 hrs. The procedure: (1995) Cardiovasc. Res. 29:848-55). […] The cells were then incubated for either 24 hrs or 72 hrs depending on the experiment. All treatment conditions were established in triplicate. The level of mRNA for tgfb1, tgfb2 and tgfb3 were estimated by quantitative PCR. The media was removed and RNA was carefully prepared using the Ambion RNAqueous4PCR kit (Ambion#1914) in accordance with the manufacturer's instructions. The purity of the RNA and the quantity was assessed spectrophotometrically. […] This analysis results in both a gel-like image as well as electrophoretic data. Indications of RNA degradation are: (a) decreasing ratio of ribosomal bands (b) additional peaks bellow the ribosomal bands (c) Decrease in overall RNA signal (d) shift towards shorter fragments. All the mRNA samples used in the experiments presented here passed this RNA quality control step. Next, the RNA was converted to cDNA using the ABI High-Capacity cDNA Archive Kit, in accordance with manufacturer's instructions. […] Samples were vortexed to ensure thorough mixing. cDNA was aliquoted into ABI 384 well plates using a multi-channel pipette, 4.5 μl of sample into each well. Samples were assayed in triplicate (that is, nine determinations in total were made for each condition, being three separate assays on each of three replicate culture wells). The assay mix and Universal Master Mix were prepared and aliquoted across the 384 well plates 5.5 μl in each well, using a single channel pipette. The final composition of each reaction (10 μl) being: […] Universal Master Mix=5 μl; cDNA=4.5 μl. The plates were then heat sealed using Abgene clear seal strong plastic heat seals, and then cycled and scanned using the ABI 9700HT under the following conditions: 95° C. for 10 minutes to activate the AmpliTaq GOLD, then 40 cycles of: 95° C. for 15 sec (Denaturation), 60° C. for 60 […]). […] Quantitative PCR was performed using several primer/probe sets. […] We used both commercially available primer/probe sets (ABI Taqman pre-validated assays), using both available sets in the ABI database for tgfb1 and tgfb2, as well as the single available set for tgfb3. In addition, we used our own manual design probe/primer set for each of tgfb1, tgfb2 and tgfb3. For normalisation, we used TATA-binding protein (TBP) as the primary normalisation standard, with GAPDH as an alternative for confirmation, using ABI Taqman pre-validated probe/primer sets. […] Neither TBP nor GAPDH mRNA levels are affected by TGF-beta and are therefore equally suitable, however TBP was selected as the primary normalisation standard because the absolute level of mRNA in most cell types is similar to that of the TGF-beta isoforms, resulting in lower errors on calculating the ratio, and improving the power of the experiment. In all quantitative PCR experiments, several additional controls were included: firstly, a control for each sample is run with no reverse transcription to ensure the mRNA sample is not contaminated with genomic DNA (although the manual design probe/primer sets were all selected to cross an exon/exon boundary, ensuring no detectable amplicon is produced from genomic DNA templates). […] This control ensures that the results for the unknown samples are obtained in the linear range of the amplification process, and are therefore truly quantitative. Failure of either control led to the repeat of the entire experiment. Typically, the half maximal signal was obtained after 20-30 amplification cycles. […]

The test system of a further assay is apoE-deficient mice. The assay is described as follows: vascular lipid lesion formation at the aortic root, Oil Red O staining. The following applies: for Intimal lipid lesion area / Intimal:media area ratio / Lipid lesion area / Total intimal area: Aspirin 30 mg/kg/day, mean ± SD; for reduction of vascular lipid lesion area: Tamoxifen 1 mg/kg/day p.o, vs control. In kind it is in vivo. The text has this: (§1) Adult male apoE-deficient mice, back-crossed onto a C57B16 background for at least five generations, were randomised into groups of eight animals at 12 weeks of age, such that each group had similar average body weight. […] The amount of food eaten and the body weight of each mouse was monitored daily for the first week, and once per week thereafter. After 12 weeks of treatment, the mice were sacrificed by CO2 asphyxiation, and heart & lung blocks were excised, embedded in Cryo-M-bed (Bright Instruments, UK) without fixation and snap frozen in liquid nitrogen.
(§2) Sections were then prepared from the aortic root according to the Paigen Strategy (a defined sequence of cutting sections which allow reproducible comparison between animals; see for example Grainger et al. (1995) Nature Med. 1:1067-72 and the references therein). 4 μm crysosections were cut using a motordriven cryotome (Bright Instruments) and collected onto poly-L-lysine coated glass microscope slides, then fixed in ice-cold acetone for 90 secs, allowed to air dry and stored at −20° C. until analysed.
The extent of vascular lipid lesion formation was assessed by Oil Red O staining, with a Fast Green counterstain, a standard histological procedure well known in the art. Briefly, five sections (selected according to the Paigen strategy) from each animal were passed through graded alcohol solutions, then stained in Oil Red O for 12 minutes, washed several times and then counterstained by dipping in Fast Green for 5-10 secs, and then dip washed in several changes of clean water. After air drying, an appropriate mountant was applied (simple glycerol-based moutants are most appropriate for this task), followed by a coverslip using acrylic varnish surrounding the coverslip to hold it in place. Slides were then analysed using a simple inverted microscope (no phase contrast; 10× objective; Olympus AX series), fitted with a digital camera to capture images of the entire aortic wall. The images were subsequently processed, blind to the treatment status of the animal, using Openlab image analysis software (Improvision, UK) running on an Apple Macintosh computer. On each image, the user delineated the external elastic lamina, internal elastic lamina and the luminal surface of the vessel wall, and the software reported the total intimal area, the intimal:medial area ratio, the total neutral lipid area and the intimal lipid area. The values from each image were summed (except for intimal:media area ratio, which were averaged), and then the values from each slide were summed (or averaged, as above) to yield a value for each parameter for each animal. […]
Adult male apoE-deficient mice were treated, in groups of 8, with fish oil (Seven Seas, UK), aspirin or both agents simultaneously from 12 weeks of age until 24 weeks of age, exactly as described in Example 2.
Mice were sacrificed and heart & lung blocks prepared and processed exactly as described in Example 2. Sections were prepared in accordance with the Paigen Strategy, as in example 2. The extent of lipid lesion formation was assessed by Oil Red 0 staining with Fast Green counterstain, exactly as in example 2.

The subject of the next assay is TGF-beta1. The assay is described as follows: TGF-beta1 protein in the blood vessel wall, quantitative immunofluoresence. In kind it is in vivo. The following applies: apoE mice; for TGF-b1 staining: Aspirin 30 mg/kg/day, mean ± SD.
Text: as §1, §2

[1] abbreviates: 12 to 24 weeks of age, Fish oils 100 mg/kg/day.
[2] abbreviates: 12 weeks in chow, TMX 1 mg/kg/day.

In the case of `CC(=O)Oc1ccccc1C(=O)O` [Aspirin, acetylsalicylic acid], the “Level of mRNA, estimated by qPCR: tgfb1” value is 1.01 ± 0.04 fold-change in the assay with tgfb1 mRNA (10 μM A), 0.93 ± 0.11 fold-change in the assay with tgfb1 mRNA (33 μM A) and 1.06 ± 0.08 fold-change in the assay on tgfb1 mRNA (100 μM A). Also, the “effect on the mRNA levels of any of the three isoforms of TGF-beta” value in the assay with tgfb1 mRNA (any concentration tested (up to 100 μM)) was “no statistically significant effect”. For the same compound, the “Intimal lipid lesion area” value is reported as 31,006 ± 7,176 μm2 with apoE-deficient mice (setting [1]) and 31,006 ± 7,176 μm^2 in the assay on apoE-deficient mice (setting [2]). The “Intimal:media area ratio” value with apoE-deficient mice (setting [1]) and with apoE-deficient mice (setting [2]) was 62 ± 9% throughout. The Lipid lesion area in the assay on apoE-deficient mice (setting [1]) is listed as 35,860 ± 8,091 μm2; in the assay on apoE-deficient mice (setting [2]) it was 35,860 ± 8,091 μm^2. For the same compound, the Total intimal area is 65,209 ± 6.712 μm2 in the assay with apoE-deficient mice (setting [1]) and 65,209 ± 6,712 μm^2 in the assay with apoE-deficient mice (setting [2]). Besides, the “effect on total intimal area and intimal:medial area ratio” value with apoE-deficient mice (Example 2) is listed as “did not affect”. In addition, in the assay with apoE-deficient mice (aspirin 30 mg/kg/day p.o), the “reduction of vascular lipid lesion area” value is recorded as 6%. In addition, the “effect on any measure of vascular lipid lesion area or plaque size” value with apoE-deficient mice (administered separately, fish oil 100 mg/kg/day p.o, aspirin 30 mg/kg/day p.o) is given as “no statistically significant effect”. Moreover, the TGF-b1 staining in the assay on TGF-beta1 (12 weeks, TMX 1 mg/kg/day) stood at 65 ± 11 AU; with TGF-beta1 (Fish oils 100 mg/kg/day) it was 65 ± 11 AU. The “level of TGF-beta1 in the blood vessel wall (in words)” value with TGF-beta1 (Example 2) and in the assay on TGF-beta1 (Example 3) was “no effect” each time.

As for `CC/C(=C(\c1ccccc1)c1ccc(OCCN(C)C)cc1)c1ccccc1` [Tamoxifen], the “Level of mRNA, estimated by qPCR: tgfb1” value with tgfb1 mRNA (3.3 μM T, normalised to TBP, vs vehicle) was 0.95 ± 0.16 fold-change; with tgfb1 mRNA (10 μM T) it was 1.27 ± 0.09 fold-change; in the assay with tgfb1 mRNA (33 μM T, listed as T), 1.41 ± 0.08 fold-change; in the assay on tgfb1 mRNA (33 μM T, listed as TMX), “approximately 1.4 fold-change”. Also, in the assay on tgfb1 mRNA, the “doses that significantly increased tgfb1 mRNA” value is at least 10 µM. In addition, the “Intimal lipid lesion area” value in the assay on apoE-deficient mice (setting [2]) was 9,393 ± 2,221 * μm^2. The Lipid lesion area in the assay on apoE-deficient mice (setting [2]) is given as 10,794 ± 2,820 * μm^2. Further, the Total intimal area with apoE-deficient mice (setting [2]) is 64,428 ± 4,294 μm^2. The “reduction of vascular lipid lesion area” value with apoE-deficient mice (aspirin 30 mg/kg/day p.o) is 72%. The TGF-b1 staining with TGF-beta1 (12 weeks, TMX 1 mg/kg/day) is 94 ± 9 AU. Further, the “level of TGF-beta1 in the blood vessel wall (in words)” value with TGF-beta1 (Example 2) is given as “increased”.
